From US6599529B1, “Modified release multiple-units compositions of non-steroid anti-inflammatory drug substances (NSAIDs)” (Nycomed Danmark A/S, priority 1997, dated 2003)

Columns and labels:
[1] = Solubility in 0.1 N HCl / water; format: physicochemical
[2] = cited from earlier work
[3] = in water and 0.1 N HCl at room temperature; cited from earlier work

| Compound | solubility ([1]; at a pH corresponding to 0.1 N HCl, room temperature) | solubility ([1]; in 0.1 N HCl (aqueous solution of 0.1 N hydrochloric acid)) [mg/100 ml] | pKa value [2] | solubility (in words) [3] |
| --- | --- | --- | --- | --- |
| CN1C(C(=O)Nc2ccccn2)=C(O)c2sc(Cl)cc2S1(=O)=O [lornoxicam] | less than 1 mg/100 ml | < 1 | about 4.7 |  |
| CC(=O)Oc1ccccc1C(=O)O [acetylsalicylic acid] |  |  |  | practically insoluble |
| COc1ccc2c(c1)c(CC(=O)O)c(C)n2C(=O)c1ccc(Cl)cc1 [indometacin] |  |  |  | practically insoluble |
